Legend:
Assay in all cases: combination Emax (second highest fraction inhibited in the dose matrix, 72 h); higher = more inhibition; extreme values may be limits of the assay
[1] = tested on: KY821 (Acute Myeloid Leukemia)
In short: (§1)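 Cell lines in DMEM/F12 or RPMI with 10% FBS were plated in 1536-well plates, held 24 hours at 37°C, 5% CO2, then given two-drug dose matrices for 72 hours (DMSO typically 0.2%). Viability was read by CellTiter-Glo 2.0 luminescence and scaled as inhibition from 0 (vehicle wells) to 1 (blank wells). Combination Emax is the second-highest inhibition in the matrix; Bliss excess is observed combination effect minus expected EA + EB − EA·EB, EA and EB being single-agent effects.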

[2] = tested on: NCI-H520 (Squamous Cell Lung Carcinoma)
In short: as §1

[3] = tested on: IM-95 (Gastric Carcinoma)
In short: as §1

[4] = tested on: SK-GT-4 (Esophageal Adenocarcinoma)
In short: as §1

[5] = tested on: JHH-4 (Hepatocellular Carcinoma)
In short: as §1

RD (Rhabdomyosarcoma) = tested on: RD (Rhabdomyosarcoma)
In short: as §1

[6] = tested on: VMRC-RCZ (Kidney Carcinoma)
In short: as §1

[7] = tested on: SUP-B15 (B-Lymphoblastic Leukemia)
In short: as §1

[8] = tested on: SNU-398 (Hepatocellular Carcinoma)
In short: as §1

[9] = tested on: T-T (Esophageal Squamous Cell Carcinoma)
In short: as §1

[10] = tested on: KU812 (Chronic Myelogenous Leukemia)
In short: as §1

[11] = tested on: HCC1419 (Breast Carcinoma)
In short: as §1

[12] = tested on: H9 (T-Cell Non-Hodgkin's Lymphoma)
In short: as §1

[13] = tested on: ESO51 (Esophageal Adenocarcinoma)
In short: as §1

[14] = tested on: KP-3 (Pancreatic Carcinoma)
In short: as §1

[15] = tested on: KYSE-270 (Esophageal Squamous Cell Carcinoma)
In short: as §1

SJSA-1 (Osteosarcoma) = tested on: SJSA-1 (Osteosarcoma)
In short: as §1

[16] = tested on: RPMI-8226 (Plasma Cell Myeloma)
In short: as §1

[17] = tested on: CHSA8926 (Chondrosarcoma)
In short: as §1

[18] = tested on: HCC1187 (Breast Carcinoma)
In short: as §1

| SMILES | combination Emax [1] | combination Emax [2] | combination Emax [3] | combination Emax [4] | combination Emax [5] | combination Emax (RD (Rhabdomyosarcoma)) | combination Emax [6] | combination Emax [7] | combination Emax [8] | combination Emax [9] | combination Emax [10] | combination Emax [11] | combination Emax [12] | combination Emax [13] | combination Emax [14] | combination Emax [15] | combination Emax (SJSA-1 (Osteosarcoma)) | combination Emax [16] | combination Emax [17] | combination Emax [18] |
| --- | --- | --- | --- | --- | --- | --- | --- | --- | --- | --- | --- | --- | --- | --- | --- | --- | --- | --- | --- | --- |
| COc1cccc(OCCCN)c1-c1cc(Nc2cnc(C#N)cn2)n[nH]1 [Prexasertib] + C=CCn1c(=O)c2cnc(Nc3ccc(N4CCN(C)CC4)cc3)nc2n1-c1cccc(C(C)(C)O)n1 [AZD1775] (first compound max 1 µM, partner max 1 µM) | 1 | 0.853 | 0.691 | 0.758 | 0.701 | 0.75 | 0.388 | 0.978 | 0.514 | 0.888 | 0.819 | 0.269 | 1 | 0.757 | 0.472 | 1 | 0.686 | 1 | 0.531 | 0.819 |
| COc1cccc(OCCCN)c1-c1cc(Nc2cnc(C#N)cn2)n[nH]1 [Prexasertib] + CCc1c2c(nc3ccc(O)cc13)-c1cc3c(c(=O)n1C2)COC(=O)[C@]3(O)CC [SN-38] (first compound max 1 µM, 7x7, partner max 0.3 µM) | 1 | 0.867 | 0.602 | 0.743 | 0.954 | 0.958 | 0.625 | 1 | 0.725 | 0.971 | 0.794 | 0.402 | 1 | 0.879 | 0.57 | 1 | 0.743 | 1 | 0.537 | 0.866 |
| COc1cccc(OCCCN)c1-c1cc(Nc2cnc(C#N)cn2)n[nH]1 [Prexasertib] + CN(C)CCCOc1ccc(-c2ccc3ncc4c(c3c2)n(C2CCOCC2)c(=O)n4C)cn1 [AZD0156] (first compound max 1 µM, 7x7, partner max 1 µM) | 1 | 0.775 | 0.458 | 0.724 | 0.529 | 0.536 | 0.342 | 0.959 | 0.436 | 0.597 | 0.782 | 0.258 | 1 | 0.788 | 0.513 | 1 | 0.711 | 1 | 0.288 | 0.645 |
| COc1cccc(OCCCN)c1-c1cc(Nc2cnc(C#N)cn2)n[nH]1 [Prexasertib] + C[C@@H]1COCCN1C2=NC(=NC(=C2)C3(CC3)[S@](=N)(=O)C)C4=C5C=CNC5=NC=C4 [AZD6738] (first compound max 1 µM, 7x7, partner max 10 µM) | 1 | 0.775 | 0.267 | 0.713 | 0.501 | 0.539 | 0.398 | 0.962 | 0.437 | 0.742 | 0.756 | 0.449 | 1 | 0.779 | 0.456 | 0.999 | 0.575 | 1 | 0.361 | 0.614 |
| COc1cccc(OCCCN)c1-c1cc(Nc2cnc(C#N)cn2)n[nH]1 [Prexasertib] + Cc1cc2ncnn2cc1Nc1ncc2c(n1)n(C1CCOCC1)c(=O)n2C [AZD7648] (first compound max 1 µM, 7x7, partner max 10 µM) | 1 | 0.881 | 0.36 | 0.735 | 0.62 | 0.571 | 0.362 | 0.966 | 0.441 | 0.65 | 0.789 | 0.288 | 1 | 0.777 | 0.465 | 1 | 0.656 | 0.995 | 0.416 | 0.614 |
| COc1cccc(OCCCN)c1-c1cc(Nc2cnc(C#N)cn2)n[nH]1 [Prexasertib] + O=C(c1cc(Cc2n[nH]c(=O)c3ccccc23)ccc1F)N1CCN(C(=O)C2CC2)CC1 [Olaparib] (first compound max 1 µM, 7x7, partner max 10 µM) | 1 | 0.825 | 0.253 | 0.593 | 0.532 | 0.58 | 0.408 | 0.98 | 0.383 | 0.795 | 0.796 | 0.266 | 1 | 0.555 | 0.469 | 0.964 | 0.639 | 0.999 | 0.398 | 0.614 |
| COc1cc2c(cc1OCCCCCOc1cc3c(cc1OC)C(=O)N1C=C(C)C[C@H]1C=N3)N=C[C@@H]1CC(C)=CN1C2=O [SG3199] + O=C(c1cc(Cc2n[nH]c(=O)c3ccccc23)ccc1F)N1CCN(C(=O)C2CC2)CC1 [Olaparib] (first compound max 0.001 µM, 7x7, partner max 10 µM) | 0.101 | 0.118 | 0.0954 | 0.104 | 0.149 | 0.0922 | 0.0887 | 0.921 | 0.175 | 0.114 | 0.192 | 0.0746 | 0.0468 | 0.138 | 0.027 | 0.228 | 0.159 | 0.165 | 0.355 | 0.204 |
| CCc1c2c(nc3ccc(O)cc13)-c1cc3c(c(=O)n1C2)COC(=O)[C@]3(O)CC [SN-38] + CN(C)CCCOc1ccc(-c2ccc3ncc4c(c3c2)n(C2CCOCC2)c(=O)n4C)cn1 [AZD0156] (first compound max 0.3 µM, 7x7, partner max 1 µM) | 0.998 | 0.786 | 0.499 | 0.258 | 0.905 | 0.246 | 0.261 | 1 | 0.231 | 0.803 | 0.72 | 0.444 | 1 | 0.586 | 0.0449 | 0.946 | 0.673 | 0.77 | 0.319 | 0.336 |
| C[C@@H](c1ccc2nccn2c1)n1nnc2ncc(-c3cnn(C)c3)nc21 [Savolitinib] + CC1(C)CCC(CN2CCN(c3ccc(C(=O)NS(=O)(=O)c4ccc(NCC5CCOCC5)c([N+](=O)[O-])c4)c(Oc4cnc5[nH]ccc5c4)c3)CC2)=C(c2ccc(Cl)cc2)C1 [Venetoclax] (first compound max 1 µM, 7x7, partner max 1 µM) | 0.895 | 0.138 | 0.333 | 0.101 | 0.539 | 0.143 | 0.152 | 1 | 0.127 | 0.236 | 0.245 | 0.268 | 0.155 | 0.877 | 0.131 | 0.15 | 0.109 | 0.106 | 0.29 | 0.0587 |
| C[C@@H](c1ccc2nccn2c1)n1nnc2ncc(-c3cnn(C)c3)nc21 [Savolitinib] + Cc1c2c(nn1C)CSCc1cc(n(C)n1)CSc1cc(c3ccccc3c1)OCCCc1c(C(=O)O)n(C)c3c-2c(Cl)ccc13 [AZD5991] (first compound max 1 µM, 7x7, partner max 1 µM) | 1 | 0.208 | 0.732 | 0.14 | 0.182 | 0.21 | 0.134 | 0.678 | 0.936 | 0.836 | 0.708 | 0.255 | 0.342 | 0.977 | 0.235 | 0.652 | 0.265 | 0.983 | 0.318 | 1 |
| Cn1cnc2c(F)c(Nc3ccc(Br)cc3Cl)c(C(=O)NOCCO)cc21 [Selumetinib] + C=CCn1c(=O)c2cnc(Nc3ccc(N4CCN(C)CC4)cc3)nc2n1-c1cccc(C(C)(C)O)n1 [AZD1775] (first compound max 10 µM, partner max 1 µM) | 1 | 0.295 | 0.453 | 0.528 | 0.728 | 0.669 | 0.258 | 0.915 | 0.784 | 0.301 | 0.965 | 0.0435 | 1 | 0.681 | 0.274 | 0.723 | 0.449 | 0.438 | 0.556 | 0.682 |
| Cn1cnc2c(F)c(Nc3ccc(Br)cc3Cl)c(C(=O)NOCCO)cc21 [Selumetinib] + CC(C)n1c(=O)n(C)c2cnc3cc(F)c(-c4ccc(OCCCN5CCCCC5)nc4)cc3c21 [AZD1390] (first compound max 10 µM, 7x7, partner max 0.3 µM) | 0.66 | 0.147 | 0.222 | 0.516 | 0.605 | 0.24 | 0.101 | 0.328 | 0.278 | 0.264 | 0.949 | 0.152 | 0.978 | 0.434 | 0.15 | 0.25 | 0.307 | 0.26 | 0.185 | 0.179 |
| Cn1cnc2c(F)c(Nc3ccc(Br)cc3Cl)c(C(=O)NOCCO)cc21 [Selumetinib] + CCN(CCO)CCCOc1ccc2c(Nc3cc(CC(=O)Nc4cccc(F)c4)[nH]n3)ncnc2c1 [AZD2811] (first compound max 10 µM, 7x7, partner max 1 µM) | 0.843 | 0.17 | 0.519 | 0.533 | 0.63 | 0.297 | 0.152 | 1 | 0.662 | 0.269 | 0.951 | 0.113 | 1 | 0.454 | 0.202 | 0.295 | 0.384 | 0.446 | 0.139 | 0.94 |

Reference: the supplement of paper PMC11061612
